According to US20030161893A1, “PTPase inhibitors and methods of using the same” (priority 2001, published 2003):

Test system: WM9 PRL-1R86 transfectant
Test: Growth of WM9 PRL-1R86 transfectant (MTT)
Format: cell-based, human
Settings: 50 or 100 μg/ml, 6 days
Protocol: NIH3T3 (Yi, et al., Blood 85, 87 (1995)), WM9 (Forsberg, et al., Proc. Nat. Acad Sci. USA 90, 393 (1993)), DU145 (Mickey, et al., Cancer Res. 37, 4049 (1977)), LoVo (Drewinko, et al., Cancer Res. 36, 467 (1976)), HEY (Buick, et al., Cancer Res. 45, 3668 (1985)), U251 (Yoshida, et al., Cancer 50, 410 (1982)), A549 (Giard, et al., J. Natl. Cancer Inst. 51, 1417 (1973)) and SK-N-SH (Helson, et al., Cancer Res. 35, 2594 (1975)) cell lines have been described and were cultured in RPMI 1640 supplemented with 10% fetal calf serum (FCS). For measurement of sodium stibogluconate effects on cell growth in vitro, cells were cultured in the absence (−) or presence (+) of various amounts of sodium stibogluconate for 6 days with viable cells quantified by MTT assays (Mosmann, J. Imunol. Methods 65, 55 (1983)). Percentages of growth inhibition by sodium stibogluconate were calculated (+/−×%).
The effects of sodium stibogluconate on intracellular PTPases were assessed using NIH3T3 or WM9 transfectants. NIH3T3 or WM9 cells were transfected with the pBabepuro vector (V) or pBabepuro expression constructs of Flag-tagged PRLs using Lipofectamine (BRL) following the manufacturer's procedures. […]

## O.O.O.O.O.O.O.O.O.O=C([O-])[C@@H]1[O][Sb]2([O-])([O][Sb]34([OH])[O][C@H]([C@H](O)CO)[C@H]([O]3)[C@H](C(=O)[O-])[O]4)[O][C@H]([C@H](O)CO)[C@@H]1[O]2.[Na+].[Na+].[Na+] [sodium stibogluconate]
  growth inhibition of R86 cells at higher doses: only modest growth inhibition
